Experimental data from PubChem BioAssay (NCI).
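Tested at 5 concentrations; 48 h exposure; 96-well plates; endpoints linearly interpolated, else capped at highest concentration. GI50 is the concentration that inhibits growth by half. TGI denotes the concentration required for complete inhibition of growth.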

Legend:
Test in all cases: growth of human tumour cells (NCI), 48 h
[1] = tested on: PC-3 prostate
[2] = tested on: HCT-116 colon
[3] = tested on: BT-549 breast
[4] = tested on: K-562 leukemia
[5] = tested on: SNB-19 CNS
[6] = tested on: HCC-2998 colon
[7] = tested on: HCT-15 colon
[8] = tested on: HL-60(TB) leukemia
[9] = tested on: RPMI-8226 leukemia
[10] = tested on: NCI/ADR-RES ovarian
[11] = tested on: UACC-257 melanoma
[12] = tested on: OVCAR-3 ovarian
[13] = tested on: SW-620 colon
[14] = tested on: SK-MEL-5 melanoma
[15] = tested on: LOX IMVI melanoma
[16] = tested on: DU-145 prostate
[17] = tested on: A498 renal
[18] = tested on: SF-268 CNS
[19] = tested on: ACHN renal
[20] = tested on: MCF7 breast
[21] = tested on: UACC-62 melanoma
[22] = tested on: HS 578T breast
[23] = tested on: A549 NSCLC
[24] = tested on: SN12C renal
[25] = tested on: NCI-H522 lung
[26] = tested on: MDA-MB-435
[27] = tested on: OVCAR-8 ovarian
[28] = tested on: T-47D breast
[29] = tested on: UO-31 renal
[30] = tested on: 786-0 renal
[31] = tested on: U251 CNS
[32] = tested on: SNB-75 CNS
[33] = tested on: IGROV1 ovarian
[34] = tested on: NCI-H23 lung
[35] = tested on: COLO 205 colon
[36] = tested on: SK-MEL-2 melanoma
[37] = tested on: OVCAR-4 ovarian
[38] = tested on: SF-295 CNS
[39] = tested on: CAKI-1 renal
[40] = tested on: EKVX NSCLC
[41] = tested on: NCI-H226 lung
[42] = tested on: HOP-92 NSCLC
[43] = tested on: MDA-MB-231 breast
[44] = tested on: HT29 colon
[45] = tested on: CCRF-CEM leukemia
[46] = tested on: MALME-3M melanoma
[47] = tested on: KM12 colon
[48] = tested on: RXF 393 renal
[49] = tested on: TK-10 renal
[50] = tested on: HOP-62 NSCLC
[51] = tested on: M14 melanoma
[52] = tested on: NCI-H460 lung
[53] = tested on: MOLT-4 leukemia
[54] = tested on: SF-539 CNS
[55] = tested on: SR leukemia
[56] = tested on: OVCAR-5 ovarian
[57] = tested on: SK-OV-3 ovarian
[58] = tested on: SK-MEL-28 melanoma

For `CN(Cc1cccc(F)c1)c1ccc(CO)c(Cl)c1`, which GI50 [1] is on record?
Its GI50 is 23.7 µM.

And the TGI [1]?
Its TGI is 98.8 µM.

And the GI50 [2]?
The GI50 was 0.392 µM.

What about the TGI [2] of the same compound?
Its TGI is 13.7 µM.

And the GI50 [3]?
The GI50 was 17.9 µM.

What about the TGI [3] of the same compound?
Its TGI is 60.9 µM.

And the GI50 [4]?
The GI50 was 8.99 µM.

And the TGI [4]?
The TGI was > 100 µM.

And the GI50 [5]?
The GI50 was 32.8 µM.

What about the TGI [5] of the same compound?
The TGI was > 100 µM.

And the GI50 [6]?
The GI50 was 13.2 µM.

What about the TGI [6] of the same compound?
Its TGI is 42.5 µM.

And the GI50 [7]?
The GI50 was 17.7 µM.

What about the TGI [7] of the same compound?
The TGI was > 83.2 µM.

What about the GI50 [8] of the same compound?
The GI50 was 22 µM.

What about the TGI [8] of the same compound?
Its TGI is > 77.2 µM.

What about the GI50 [9] of the same compound?
The GI50 was 13.3 µM.

What about the TGI [9] of the same compound?
The TGI was > 68.3 µM.

What about the GI50 [10] of the same compound?
Its GI50 is 17.5 µM.

And the TGI [10]?
Its TGI is 58 µM.

What about the GI50 [11] of the same compound?
Its GI50 is 0.304 µM.

What about the TGI [11] of the same compound?
Its TGI is 1.33 µM.

What about the GI50 [12] of the same compound?
The GI50 was 3.08 µM.

And the TGI [12]?
Its TGI is 15 µM.

And the GI50 [13]?
Its GI50 is 5.13 µM.

And the TGI [13]?
Its TGI is > 100 µM.

And the GI50 [14]?
Its GI50 is 11 µM.

And the TGI [14]?
Its TGI is 23.3 µM.

And the GI50 [15]?
The GI50 was 23.5 µM.

What about the TGI [15] of the same compound?
The TGI was 75.9 µM.

What about the GI50 [16] of the same compound?
The GI50 was 29.7 µM.

What about the TGI [16] of the same compound?
The TGI was > 100 µM.

What about the GI50 [17] of the same compound?
The GI50 was 0.057 µM.

And the TGI [17]?
Its TGI is 0.189 µM.

What about the GI50 [18] of the same compound?
Its GI50 is 34.4 µM.

And the TGI [18]?
The TGI was > 100 µM.

And the GI50 [19]?
The GI50 was 37.3 µM.

What about the TGI [19] of the same compound?
The TGI was > 100 µM.

What about the GI50 [20] of the same compound?
The GI50 was 1.03 µM.

And the TGI [20]?
The TGI was 26.3 µM.

What about the GI50 [21] of the same compound?
The GI50 was 0.288 µM.

What about the TGI [21] of the same compound?
The TGI was 2.42 µM.

And the GI50 [22]?
The GI50 was 25 µM.

And the TGI [22]?
Its TGI is > 100 µM.

And the GI50 [23]?
Its GI50 is 4.91 µM.

What about the TGI [23] of the same compound?
The TGI was 37 µM.

And the GI50 [24]?
The GI50 was 22.3 µM.

What about the TGI [24] of the same compound?
The TGI was > 100 µM.

And the GI50 [25]?
Its GI50 is 24.1 µM.

And the TGI [25]?
Its TGI is 75.5 µM.

What about the GI50 [26] of the same compound?
The GI50 was 15.7 µM.

And the TGI [26]?
Its TGI is 57.6 µM.

And the GI50 [27]?
Its GI50 is 20.3 µM.

What about the TGI [27] of the same compound?
Its TGI is > 100 µM.

And the GI50 [28]?
The GI50 was 0.548 µM.

And the TGI [28]?
The TGI was 3.92 µM.

And the GI50 [29]?
The GI50 was 10.3 µM.

And the TGI [29]?
The TGI was 75.5 µM.

What about the GI50 [30] of the same compound?
The GI50 was 13 µM.

And the TGI [30]?
The TGI was 41.2 µM.

And the GI50 [31]?
Its GI50 is 4.57 µM.

What about the TGI [31] of the same compound?
Its TGI is 30.6 µM.

What about the GI50 [32] of the same compound?
Its GI50 is 14.4 µM.

And the TGI [32]?
Its TGI is 51.6 µM.

And the GI50 [33]?
Its GI50 is 0.361 µM.

And the TGI [33]?
Its TGI is 3.05 µM.

What about the GI50 [34] of the same compound?
The GI50 was 13.3 µM.

What about the TGI [34] of the same compound?
Its TGI is > 92.6 µM.

What about the GI50 [35] of the same compound?
Its GI50 is 5.46 µM.

And the TGI [35]?
The TGI was 19.3 µM.

And the GI50 [36]?
The GI50 was 8.39 µM.

What about the TGI [36] of the same compound?
The TGI was 33.7 µM.

What about the GI50 [37] of the same compound?
Its GI50 is 1.61 µM.

And the TGI [37]?
The TGI was 17 µM.

What about the GI50 [38] of the same compound?
The GI50 was 3.6 µM.

What about the TGI [38] of the same compound?
The TGI was > 100 µM.

And the GI50 [39]?
Its GI50 is 3.05 µM.

What about the TGI [39] of the same compound?
The TGI was > 61.3 µM.

And the GI50 [40]?
Its GI50 is 27.2 µM.

What about the TGI [40] of the same compound?
The TGI was > 100 µM.

And the GI50 [41]?
The GI50 was 0.123 µM.

What about the TGI [41] of the same compound?
Its TGI is 0.275 µM.

What about the GI50 [42] of the same compound?
Its GI50 is 3.37 µM.

And the TGI [42]?
The TGI was 28.1 µM.

And the GI50 [43]?
The GI50 was 24.7 µM.

What about the TGI [43] of the same compound?
The TGI was > 100 µM.

And the GI50 [44]?
The GI50 was 7.02 µM.

What about the TGI [44] of the same compound?
Its TGI is 59.7 µM.

What about the GI50 [45] of the same compound?
The GI50 was 31.1 µM.

What about the TGI [45] of the same compound?
Its TGI is > 100 µM.

What about the GI50 [46] of the same compound?
Its GI50 is 27.5 µM.

And the TGI [46]?
Its TGI is > 88.9 µM.

What about the GI50 [47] of the same compound?
Its GI50 is 20.5 µM.

What about the TGI [47] of the same compound?
Its TGI is 79.6 µM.

What about the GI50 [48] of the same compound?
The GI50 was 8.72 µM.

And the TGI [48]?
Its TGI is 41.7 µM.

And the GI50 [49]?
The GI50 was 0.186 µM.

What about the TGI [49] of the same compound?
Its TGI is 0.851 µM.

And the GI50 [50]?
The GI50 was 4.84 µM.

And the TGI [50]?
Its TGI is 47.8 µM.

And the GI50 [51]?
Its GI50 is 20.4 µM.

What about the TGI [51] of the same compound?
The TGI was 83 µM.

What about the GI50 [52] of the same compound?
The GI50 was 1.28 µM.

And the TGI [52]?
The TGI was 13.5 µM.

And the GI50 [53]?
The GI50 was 29 µM.

And the TGI [53]?
The TGI was > 83.5 µM.

And the GI50 [54]?
The GI50 was 33.2 µM.

And the TGI [54]?
The TGI was > 100 µM.

And the GI50 [55]?
The GI50 was 24.4 µM.

And the TGI [55]?
Its TGI is > 88.6 µM.

What about the GI50 [56] of the same compound?
Its GI50 is 0.41 µM.

What about the TGI [56] of the same compound?
The TGI was 2.61 µM.

And the GI50 [57]?
The GI50 was 11.4 µM.

And the TGI [57]?
The TGI was 50.4 µM.

What about the GI50 [58] of the same compound?
The GI50 was 20.7 µM.

And the TGI [58]?
Its TGI is > 100 µM.
